Measurements reported in patent US20090098115A1, “Cell lines and animal models of HER2 expressing tumors” (priority 2006, published 2009).

Experiments:
BT-474 cells = test: In vitro cell proliferation assay (Cell Titer-Glo), BT-474; format: cell-based, human; settings: BT-474, 0.0001 ug/ml to 10 ug/ml, 72 h (FIGS. 7A, 8A)
Protocol: (§1) BT-474 and BT-474EE1 cells were plated in 96-well microtiter plates and incubated overnight at 37° in a humidified atmosphere of 5% CO2. […] After incubation for 72 h, Cell Titer-Glo reagent (Promega, Madison, Wis.) was added to the wells, and after a 10-min incubation at room temperature, the luminescent signal was recorded.

BT-474EEI cells = test: In vitro cell proliferation assay (Cell Titer-Glo), BT-474EEI; format: cell-based, human; settings: 0.0001 ug/ml to 10 ug/ml, 72 h (FIGS. 7B, 8B)
Protocol: as §1

## C#Cc1cccc(Nc2ncnc3cc(OCCOC)c(OCCOC)cc23)c1 [Tarceva, Erlotinib]
BT-474 cells
  cell proliferation: decreased with high doses
BT-474EEI cells
  cell proliferation: reduced at high concentrations
